We go through three compounds from article PMC5452050 (ACS Omega, 2017).

Molecules are shown by their SMILES. Substitutions are numbered along the chain they refer to.

Assay [1] has as its target T1, FLT3 (R834Q) (Homo sapiens, UniProt P36888, R834Q).
T1 sequence (P36888 27-993 R834Q): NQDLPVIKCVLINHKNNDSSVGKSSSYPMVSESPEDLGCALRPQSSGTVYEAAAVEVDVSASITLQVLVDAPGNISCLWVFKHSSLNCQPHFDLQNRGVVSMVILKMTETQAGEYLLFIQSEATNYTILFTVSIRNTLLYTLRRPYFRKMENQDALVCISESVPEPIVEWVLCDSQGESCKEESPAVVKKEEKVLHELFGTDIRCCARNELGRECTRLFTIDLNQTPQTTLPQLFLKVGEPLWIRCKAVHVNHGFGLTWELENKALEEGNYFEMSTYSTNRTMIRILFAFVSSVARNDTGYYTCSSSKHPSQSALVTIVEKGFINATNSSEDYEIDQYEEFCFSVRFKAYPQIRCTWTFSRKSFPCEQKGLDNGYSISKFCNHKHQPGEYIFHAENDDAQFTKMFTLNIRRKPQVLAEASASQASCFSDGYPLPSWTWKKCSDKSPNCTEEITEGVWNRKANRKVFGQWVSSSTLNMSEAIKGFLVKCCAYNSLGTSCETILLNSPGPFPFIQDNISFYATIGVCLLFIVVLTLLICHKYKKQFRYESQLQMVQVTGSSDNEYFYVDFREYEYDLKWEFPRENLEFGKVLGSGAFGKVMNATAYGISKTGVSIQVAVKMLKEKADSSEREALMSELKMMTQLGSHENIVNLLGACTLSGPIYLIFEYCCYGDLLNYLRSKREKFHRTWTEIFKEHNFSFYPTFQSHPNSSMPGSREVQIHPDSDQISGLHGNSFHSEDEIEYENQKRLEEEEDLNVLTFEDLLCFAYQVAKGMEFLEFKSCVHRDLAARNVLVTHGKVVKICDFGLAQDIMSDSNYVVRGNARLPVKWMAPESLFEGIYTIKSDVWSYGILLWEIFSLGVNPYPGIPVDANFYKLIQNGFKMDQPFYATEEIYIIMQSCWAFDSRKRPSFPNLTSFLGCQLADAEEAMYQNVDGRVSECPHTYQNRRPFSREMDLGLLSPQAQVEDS
Put plainly: Kd determination. The format is binding.

In assay [2] the test system is MOLM13^FLT3-ITD cells. Put plainly: MOLM13 cell viability. Conditions: Homo sapiens, MOLM-13, 72 h, read-out: MOLM13^FLT3-ITD IC50. The format is cell-based.
Assay [3] deals with T2, FLT3 (ITD) (Homo sapiens, UniProt P36888, ITD).
T2 sequence (P36888 564-993): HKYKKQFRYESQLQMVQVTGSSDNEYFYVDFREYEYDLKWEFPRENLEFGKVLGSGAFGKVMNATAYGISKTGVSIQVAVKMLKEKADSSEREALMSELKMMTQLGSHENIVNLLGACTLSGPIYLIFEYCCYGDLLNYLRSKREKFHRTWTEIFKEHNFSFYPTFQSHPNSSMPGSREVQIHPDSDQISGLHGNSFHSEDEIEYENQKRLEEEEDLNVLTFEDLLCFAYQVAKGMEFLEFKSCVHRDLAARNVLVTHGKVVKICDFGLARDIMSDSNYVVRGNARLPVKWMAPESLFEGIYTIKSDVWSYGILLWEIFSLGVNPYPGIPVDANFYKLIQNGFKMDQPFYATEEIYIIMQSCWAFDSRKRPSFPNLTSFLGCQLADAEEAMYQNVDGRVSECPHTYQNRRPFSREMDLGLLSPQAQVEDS
Put plainly: Kd determination. The format is binding.

Assay [4] concerns the target T3, FLT3 (Homo sapiens, UniProt P36888).
T3 sequence (P36888 27-993): T1 sequence (P36888 27-993 R834Q) with Q808R
Put plainly: Kd determination. The format is binding.

Assay [5] addresses T4, FLT3-autoinhibited (Homo sapiens, UniProt P36888).
T4 sequence (P36888 564-993 limits assumed): T2 sequence (P36888 564-993)
Nature of the assay: Kd determination. The format is binding.

In the case of `CC(C)Nc1ccnc(Nc2ccccc2-c2ccccc2)n1` [Compound 6a, N^2-([1,1′-Biphenyl]-2-yl)-N^4-isopropylpyrimidine-2,4-diamine], the dissociation constant (Kd) in assay [1], in assay [3], in assay [4] and in assay [5] was more than 10000 nM in each case. In addition, the IC50 in assay [2] is more than 10000 nM.

For `CC(C)Nc1ccnc(Nc2cccc(-c3cccnc3)c2)n1` [Compound 5e, N^4-Isopropyl-N^2-(3-(pyridin-3-yl)phenyl)pyrimidine-2,4-diamine], the Kd was determined as 82 nM in assay [1], 1.4 nM in assay [3], 3.6 nM in assay [4] and 78 nM in assay [5]. In addition, the IC50 in assay [2] amounted to 136 nM. Besides, the “fold more potent against FLT3 than PDGFRB and JAK1 JH2 domain (Kd)” value in assay [4] is reported as “approximately 8 fold”.

Turning to `c1cncc(-c2cccc(Nc3nccc(NC4CCCCC4)n3)c2)c1` [Compound 1, N^4-Cyclohexyl-N^2-(3-(pyridin-3-yl)phenyl)pyrimidine-2,4-diamine], the Kd in assay [1] worked out at 680 nM; in assay [3], 31 nM; in assay [4] it was 61 nM; in assay [5], 1100 nM. Besides, in assay [2], the IC50 is 620 nM.
